The record followed here is ChEMBL document CHEMBL1201862, “PubChem BioAssay data set” (2004).

Test systems include Malme-3M; IGROV-1; HL-60; HT-29; CCRF-CEM; HCT-15; A549; SK-OV-3; K562; UACC-62; HOP-62; SF-268; OVCAR-4; SF-539; HCC 2998; SW-620.
Assay in all cases: growth of human tumour cells (NCI), 48 h

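Tested at 5 concentrations; 48 h exposure; 96-well plates; endpoints linearly interpolated, else capped at highest concentration. GI50: concentration for 50% inhibition of growth.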 The source made the active and inactive calls. No stated cut-off is given here; in the data, active = GI50 up to about 1.1 µM and inactive = higher.

For `N#CC(C(=O)CCC(=O)Nc1cccc(Cl)c1)c1ccccc1` (centres undefined), the GI50 in the assay on Malme-3M is > 100 µM (inactive); with IGROV-1, > 100 µM (inactive); with HL-60 it was > 100 µM (inactive); with HT-29 it was > 100 µM (inactive); with CCRF-CEM, > 100 µM (inactive); with HCT-15, more than 100 µM. Further, the GI50 in the assay on A549, in the assay with SK-OV-3, with K562, in the assay on UACC-62, in the assay on HOP-62 and in the assay with SF-268 was > 100 µM (inactive) in each case. The GI50 with OVCAR-4, with SF-539 and with HCC 2998 was > 100 µM (inactive) each time.

Regarding `CCCOC(=O)C1C(c2ccc(OC)cc2)NC(c2ccc(OC)cc2)C(C(=O)OCCC)S1(=O)=O` (centres undefined), the GI50 in the assay with Malme-3M was > 10 µM (inactive); in the assay on IGROV-1 it was > 10 µM (inactive); in the assay on HL-60, > 100 µM (inactive); with HT-29, > 10 µM (inactive); in the assay on CCRF-CEM, > 10 µM (inactive); in the assay on HCT-15, more than 10 µM. Besides, the GI50 in the assay on A549 is > 10 µM (inactive); in the assay with SK-OV-3, > 100 µM (inactive); in the assay with K562 it was > 10 µM (inactive); in the assay on UACC-62, > 10 µM (inactive); in the assay with HOP-62, > 10 µM (inactive); in the assay with SF-268 it was > 10 µM (inactive). In addition, the GI50 with OVCAR-4, in the assay with SW-620, in the assay with SF-539 and with HCC 2998 was > 10 µM (inactive) each time.

Take `O=c1nc2occc2cn1C1CC(O)C(CO)O1` (centres undefined): the GI50 with Malme-3M was > 100 µM (inactive); in the assay with IGROV-1, > 100 µM (inactive); in the assay on HL-60, > 100 µM (inactive); in the assay on HT-29 it was > 100 µM (inactive); in the assay on CCRF-CEM, > 100 µM (inactive); in the assay on HCT-15 it was more than 100 µM. In addition, the GI50 in the assay on A549, in the assay with SK-OV-3, with K562, in the assay on UACC-62, with HOP-62 and with SF-268 was > 100 µM (inactive) in each case. Besides, the GI50 with OVCAR-4, in the assay on SW-620, in the assay on SF-539 and in the assay on HCC 2998 was > 100 µM (inactive) throughout.

As for `CCCCN[C@H]1C2C3CC4C5CC(C42)C1(C)C53` (some centres undefined), the GI50 is > 100 µM (inactive) in the assay on Malme-3M; > 100 µM (inactive) in the assay on IGROV-1; > 100 µM (inactive) in the assay with HL-60; > 100 µM (inactive) in the assay with HT-29; > 100 µM (inactive) with CCRF-CEM; more than 100 µM in the assay with HCT-15. Besides, the GI50 in the assay with A549, in the assay with SK-OV-3, in the assay with K562, with UACC-62, in the assay on HOP-62 and with SF-268 was > 100 µM (inactive) in each case. Further, the GI50 in the assay with OVCAR-4, with SW-620, with SF-539 and in the assay with HCC 2998 was > 100 µM (inactive) throughout.

As for `Cc1cc(NCCCCCCCNc2cc(C)nc3cc(N)ccc23)c2ccc(N)cc2n1`, the GI50 in the assay with Malme-3M was 36 µM (inactive); in the assay on HL-60, 3.1 µM (inactive); in the assay with HT-29 it was 34 µM (inactive); in the assay on CCRF-CEM it was 15.6 µM (inactive); in the assay with HCT-15, more than 100 µM; with A549, 29.9 µM (inactive). For the same compound, the GI50 in the assay on SK-OV-3 is 40.6 µM (inactive); in the assay with K562 it was 1.37 µM (inactive); in the assay on UACC-62, 35.5 µM (inactive); in the assay with HOP-62 it was 41.9 µM (inactive); in the assay on SF-268, 60.3 µM (inactive); with OVCAR-4, 72.3 µM (inactive). In addition, the GI50 is 27 µM (inactive) in the assay with SF-539 and 46.2 µM (inactive) with HCC 2998.

On to `COC(=O)CCC(NC(=S)N/N=C(\C)c1ccc[nH]1)C(=O)OC` (centres undefined), for which the GI50 in the assay with Malme-3M is > 100 µM (inactive); with IGROV-1, > 100 µM (inactive); in the assay with HL-60, > 100 µM (inactive); with HT-29 it was > 100 µM (inactive); in the assay on CCRF-CEM it was > 100 µM (inactive); in the assay on HCT-15, more than 100 µM. The GI50 in the assay on A549, with SK-OV-3, with K562, in the assay on UACC-62, with HOP-62 and in the assay on SF-268 was > 100 µM (inactive) each time. Moreover, the GI50 in the assay with OVCAR-4, in the assay on SW-620, in the assay on SF-539 and in the assay with HCC 2998 was > 100 µM (inactive) in each case.

For `COc1cc2c(OC)cc1CSCc1sc(C)c(c1Br)CSC2`, the GI50 in the assay on Malme-3M was > 100 µM (inactive); in the assay with IGROV-1, > 100 µM (inactive); with HL-60, 69.3 µM (inactive); in the assay with HT-29 it was > 100 µM (inactive); in the assay with CCRF-CEM, > 100 µM (inactive); with HCT-15, more than 100 µM. The GI50 in the assay with A549, with SK-OV-3, in the assay with K562, with UACC-62, in the assay with HOP-62 and in the assay with SF-268 was > 100 µM (inactive) in each case. The GI50 in the assay with OVCAR-4, in the assay with SW-620, in the assay on SF-539 and in the assay with HCC 2998 was > 100 µM (inactive) each time.

Consider `NC(=S)N1N=C2c3ccccc3CC[C@H]2[C@@H]1c1ccc(Cl)cc1`, for which the GI50 in the assay on Malme-3M was 19.4 µM (inactive); with IGROV-1, 19.4 µM (inactive); with HL-60, 17.6 µM (inactive); in the assay on HT-29, 24.9 µM (inactive); with CCRF-CEM, 41.3 µM (inactive); in the assay with HCT-15 it was 33.3 µM. Moreover, the GI50 in the assay on A549 is 30 µM (inactive); in the assay with SK-OV-3, 36.9 µM (inactive); in the assay on K562 it was 19.5 µM (inactive); with UACC-62 it was 27.9 µM (inactive); in the assay with HOP-62 it was 30.1 µM (inactive); with SF-268, 32.5 µM (inactive). Besides, the GI50 is 30.8 µM (inactive) with OVCAR-4, 38.4 µM (inactive) with SW-620, 41.7 µM (inactive) in the assay with SF-539 and 36.7 µM (inactive) with HCC 2998.

Consider `COc1ccc(CCN2CCC(C#N)(c3ccc(OC)c(OC)c3)CC2)cc1OC`, for which the GI50 in the assay on Malme-3M is > 100 µM (inactive); in the assay with IGROV-1, > 100 µM (inactive); in the assay on HL-60, > 100 µM (inactive); in the assay on HT-29, > 100 µM (inactive); in the assay on CCRF-CEM, > 100 µM (inactive); in the assay on HCT-15, more than 100 µM. The GI50 in the assay on A549, in the assay with SK-OV-3, in the assay with K562, in the assay on UACC-62, in the assay on HOP-62 and in the assay with SF-268 was > 100 µM (inactive) throughout. For the same compound, the GI50 in the assay on OVCAR-4, in the assay on SW-620, with SF-539 and with HCC 2998 was > 100 µM (inactive) in each case.

For the compound `CNC(=S)OCCC(C)CCCC(C)C` (centres undefined), the GI50 is 21.5 µM (inactive) in the assay on Malme-3M; 17.3 µM (inactive) in the assay on IGROV-1; 6.84 µM (inactive) in the assay with HL-60; 17.3 µM (inactive) in the assay with HT-29; 19.4 µM (inactive) in the assay with CCRF-CEM; 14.7 µM with HCT-15. Further, the GI50 is 16.3 µM (inactive) in the assay on A549; 20.9 µM (inactive) in the assay on SK-OV-3; 13.7 µM (inactive) in the assay with K562; 15.5 µM (inactive) in the assay on UACC-62; 19.6 µM (inactive) in the assay on HOP-62; 17 µM (inactive) in the assay on SF-268. The GI50 in the assay with OVCAR-4 is 16.7 µM (inactive); in the assay with SW-620, 16.6 µM (inactive); with SF-539, 16.8 µM (inactive); with HCC 2998 it was 18 µM (inactive).

In the case of `O=C(/C(=C\c1ccccc1)CN1CCOCC1)c1ccc(Br)cc1`, the GI50 in the assay with Malme-3M is 1.78 µM (inactive); with IGROV-1, 4.97 µM (inactive); in the assay on HL-60, 1.5 µM (inactive); with HT-29 it was 2.05 µM (inactive); with CCRF-CEM it was 0.714 µM (active); in the assay on HCT-15, 1.93 µM. Besides, the GI50 with A549 was 6.64 µM (inactive); in the assay with SK-OV-3 it was 3.61 µM (inactive); in the assay with K562 it was 1.15 µM (inactive); in the assay with UACC-62, 1.55 µM (inactive); in the assay with HOP-62, 6.27 µM (inactive); in the assay on SF-268 it was 3.63 µM (inactive). Also, the GI50 is 2.77 µM (inactive) in the assay on OVCAR-4, 1.18 µM (inactive) with SW-620, 2.12 µM (inactive) in the assay with SF-539 and 16 µM (inactive) in the assay on HCC 2998.

With `Cn1cc(C(=O)NCCC(=N)N)cc1NC(=O)C1=[N+](C)C=C(NC(=O)c2cccc(C(=O)NC3=CC(C(=O)Nc4cc(C(=O)NCCC(=N)N)cn4C)=[N+](C)C3)c2)C1`, the GI50 is 24.8 µM (inactive) in the assay on Malme-3M; > 100 µM (inactive) in the assay on IGROV-1; > 100 µM (inactive) with HL-60; > 100 µM (inactive) with HT-29; > 100 µM (inactive) with CCRF-CEM; more than 100 µM with HCT-15. For the same compound, the GI50 in the assay on A549 is > 100 µM (inactive); with SK-OV-3, > 100 µM (inactive); with K562, 83.8 µM (inactive); with UACC-62, 37.8 µM (inactive); in the assay with HOP-62, > 100 µM (inactive); in the assay with SF-268, > 100 µM (inactive). The GI50 in the assay on OVCAR-4 was > 100 µM (inactive); in the assay on SW-620 it was > 100 µM (inactive); in the assay with SF-539 it was 41.2 µM (inactive); in the assay on HCC 2998, 99.8 µM (inactive).

In the case of `CC(C)c1cccc(C(C)C)c1NC(=O)C(=O)CC(=O)CC(c1ccccc1)c1c(O)oc2ccccc2c1=O` (centres undefined), the GI50 in the assay with Malme-3M, in the assay with IGROV-1, in the assay on HL-60, with HT-29, in the assay with CCRF-CEM and in the assay with A549 was > 100 µM (inactive) throughout. Further, the GI50 in the assay on SK-OV-3, in the assay on K562, in the assay on UACC-62, in the assay with HOP-62, in the assay with SF-268 and in the assay on OVCAR-4 was > 100 µM (inactive) in each case. The GI50 in the assay with SW-620, with SF-539 and in the assay on HCC 2998 was > 100 µM (inactive) in each case.
